IC50 data for 42 molecules are collected here from patent US20260297083A1, “SUBSTITUTED ACETYLENE COMPOUND DERIVATIVES AND THEIR PHARMACEUTICAL USE” (AVELOS THERAPEUTICS INC., priority 2023, published 2026).

The test addresses T1, Polθ polymerase domain (amino acids 1792-2590) (Homo sapiens, UniProt O75417).
T1 construct: 10×Histidine-SUMO (N, cleaved yes); made in house; host or cells: E. coli
T1 sequence (O75417 1792-2590): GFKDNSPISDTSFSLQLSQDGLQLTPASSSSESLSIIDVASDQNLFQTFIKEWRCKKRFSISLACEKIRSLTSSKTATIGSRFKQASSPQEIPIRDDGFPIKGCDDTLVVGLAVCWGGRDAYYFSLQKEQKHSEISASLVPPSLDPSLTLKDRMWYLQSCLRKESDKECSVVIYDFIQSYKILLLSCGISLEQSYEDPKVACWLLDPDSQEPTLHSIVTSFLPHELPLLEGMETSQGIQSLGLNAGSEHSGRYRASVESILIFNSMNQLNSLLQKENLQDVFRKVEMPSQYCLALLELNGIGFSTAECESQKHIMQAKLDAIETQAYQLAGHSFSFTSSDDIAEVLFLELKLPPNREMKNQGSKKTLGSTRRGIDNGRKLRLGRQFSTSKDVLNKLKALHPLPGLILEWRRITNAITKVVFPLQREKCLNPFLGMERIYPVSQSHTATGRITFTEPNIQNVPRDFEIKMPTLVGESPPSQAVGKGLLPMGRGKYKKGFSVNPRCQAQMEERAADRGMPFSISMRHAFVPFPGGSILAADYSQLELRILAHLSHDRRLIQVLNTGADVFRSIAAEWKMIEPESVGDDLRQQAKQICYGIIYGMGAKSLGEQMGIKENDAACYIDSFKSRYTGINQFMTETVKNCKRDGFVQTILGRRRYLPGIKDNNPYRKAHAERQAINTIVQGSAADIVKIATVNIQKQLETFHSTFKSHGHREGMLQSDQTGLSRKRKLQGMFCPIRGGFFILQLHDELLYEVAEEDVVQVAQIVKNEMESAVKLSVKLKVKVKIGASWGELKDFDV
Put plainly: Picogreen assay of Polθ polymerase activity. It is filed as biochemical. Conditions: 12-point concentration response, 90 minutes incubation at room temperature, 8 nM Polθ in 2×polymerase mixture, read-out: PolQ IC50. In outline: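 E. coli-expressed polymerase domain with His-SUMO tag removed; 2× enzyme mix (8 nM) combined with 2× substrate mix (100 nM annealed primer/template DNA, 40 uM dNTPs). Buffer 25 mM Tris-HCl pH 7.5, 12.5 mM NaCl, 0.5 mM MgCl2, 1 mM DTT. Reaction 90 min at room temperature, then EDTA/Picogreen stain read at 485/520 nm; 12-point IC50.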
Broadly, the IC50 is the midpoint of a concentration-inhibition curve. With `Cc1cc(C(F)(F)F)cc(N2[C@H](C(=O)N(CC#Cc3ccc(C(N)=O)cn3)c3ccc(F)c(C)c3)CCS2(=O)=O)n1` [compound 97], the IC50 is 1 to 50 nM.
To `Cc1cc(C(F)(F)F)cc(N2[C@H](C(=O)N(CC#Cc3cnc4c(c3)CN(C)C4=O)c3ccc(F)c(C)c3)CCS2(=O)=O)n1` [compound 98] belongs 1 to 50 nM.
To `Cc1cc(C(F)(F)F)cc(N2[C@H](C(=O)N(CC#Cc3cnc4c(c3)C(C)(C)N(C)C4=O)c3ccc(F)c(C)c3)CCS2(=O)=O)n1` [compound 99] belongs 1 to 50 nM; to `Cc1cc(C(F)(F)F)cc(N2[C@H](C(=O)N(CC#Cc3cnc4c(c3)C(=O)N(C)C4=O)c3ccc(F)c(C)c3)CCS2(=O)=O)n1` [compound 100], 1 to 50 nM; to `Cc1cc(C(F)(F)F)cc(N2[C@H](C(=O)N(CC#Cc3n[nH]c(=O)c4ccccc34)c3ccc(F)c(C)c3)CCS2(=O)=O)n1` [compound 101], 51 to 100 nM.
The value for `Cc1cc(C(F)(F)F)cc(N2[C@H](C(=O)N(CC#Cc3cncn3C)c3ccc(F)c(C)c3)CCS2(=O)=O)n1` [compound 102] was 1 to 50 nM; that for `Cc1cc(C(F)(F)F)cc(N2[C@H](C(=O)N(CC#Cc3ncnc(N4CCOCC4)n3)c3ccc(F)c(C)c3)CCS2(=O)=O)n1` [compound 103] was above 101 nM.
Take `Cc1cc(C(F)(F)F)cc(N2[C@H](C(=O)N(CC#Cc3nc(C(N)=O)co3)c3ccc(F)c(C)c3)CCS2(=O)=O)n1` [compound 104]: the IC50 lay in the range of 1 to 50 nM.
Take `Cc1cc(C(F)(F)F)cc(N2[C@H](C(=O)N(CC#Cc3ccc(C(N)=O)cc3)c3ccc(F)c(C)c3)CCS2(=O)=O)n1` [compound 105]: the IC50 is 1 to 50 nM.
Regarding `Cc1cc(C(F)(F)F)cc(N2[C@H](C(=O)N(CC#Cc3cccc(C(N)=O)c3)c3ccc(F)c(C)c3)CCS2(=O)=O)n1` [compound 106], the IC50 lay in the range of 1 to 50 nM.
The value for `Cc1cccc(N(CC#Cc2ccc(N)nn2)C(=O)[C@@H]2CN(C)S(=O)(=O)N2c2cc(C(F)(F)F)cc(C)n2)c1` [compound 107] was 1 to 50 nM; that for `Cc1cccc(N(CC#Cc2cnc(N)cn2)C(=O)[C@@H]2CN(C)S(=O)(=O)N2c2cc(C(F)(F)F)cc(C)n2)c1` [compound 108] was 51 to 100 nM.
Consider `Cc1cc(C(F)(F)F)cc(N2[C@H](C(=O)N(CC#Cc3ccc(N)nn3)c3ccc(F)c(C)c3)CN(C)S2(=O)=O)n1` [compound 109], for which the IC50 was 1 to 50 nM.
Take `Cc1cc(C(F)(F)F)cc(N2[C@H](C(=O)N(CC#Cc3ccc(N)nn3)c3ccc(F)c(C)c3)CN(C(C)C)S2(=O)=O)n1` [compound 110]: the IC50 was in the range of 1 to 50 nM.
In the case of `Cc1cc(C(F)(F)F)cc(N2[C@H](C(=O)N(CC#Cc3ccc(C(=O)N(C)C)nc3)c3ccc(F)c(C)c3)CCS2(=O)=O)n1` [compound 111], the IC50 was in the range of 1 to 50 nM.
With `Cc1cc(C(F)(F)F)cc(N2[C@H](C(=O)N(CC#Cc3ccc(C(N)=O)nc3)C(C)(C)c3ccc(F)c(C)c3)CCS2(=O)=O)n1` [compound 112], the IC50 is above 101 nM.
The value for `Cc1cc(C(F)(F)F)cc(N2[C@H](C(=O)N(CC#Cc3ccc(C(N)=O)nc3)Cc3ccc(F)c(C)c3)CCS2(=O)=O)n1` [compound 113] was above 101 nM.
To `Cc1cc(C(F)(F)F)cc(N2[C@@H](C(=O)N(CC#Cc3ccc(C(N)=O)nc3)Cc3ccc(F)c(C)c3)CCS2(=O)=O)n1` [compound 114] belongs above 101 nM; to `Cc1cc(C(F)(F)F)cc(N2[C@H](C(=O)N(CC#Cc3ccc(C#N)nc3)c3ccc(F)c(C)c3)CCS2(=O)=O)n1` [compound 115], 1 to 50 nM.
To `Cc1cc(C(F)(F)F)cc(N2[C@H](C(=O)N(CC#Cc3ccc(-c4ncon4)nc3)c3ccc(F)c(C)c3)CCS2(=O)=O)n1` [compound 116] belongs 1 to 50 nM.
Consider `Cc1cc(C(F)(F)F)cc(N2[C@H](C(=O)N(CC#Cc3ccc(C(N)=O)nc3C)c3ccc(F)c(C)c3)CCS2(=O)=O)n1` [compound 117], for which the IC50 lay in the range of 1 to 50 nM.
As to `Cc1cc(C(F)(F)F)cc(N2[C@H](C(=O)N(CC#Cc3ncc(C(N)=O)nc3C)c3ccc(F)c(C)c3)CCS2(=O)=O)n1` [compound 118], the IC50 lay within 1 to 50 nM.
To `Cc1cc(C(F)(F)F)cc(N2[C@H](C(=O)N(CC#Cc3nc(C)c(C(N)=O)nc3C)c3ccc(F)c(C)c3)CCS2(=O)=O)n1` [compound 119] belongs 1 to 50 nM; to `Cc1cc(C(F)(F)F)cc(N2[C@H](C(=O)N(CC#Cc3cccc(C(N)=O)n3)c3ccc(F)c(C)c3)CCS2(=O)=O)n1` [compound 120], 1 to 50 nM; to `Cc1cc(C(F)(F)F)cc(N2[C@H](C(=O)N(CC#Cc3cnc(C(N)=O)c(C#N)c3)c3ccc(F)c(C)c3)CCS2(=O)=O)n1` [compound 121], 1 to 50 nM.
The value for `Cc1cc(C(F)(F)F)cc(N2[C@H](C(=O)N(CC#Cc3cc(F)c(C(N)=O)cn3)c3ccc(F)c(C)c3)CCS2(=O)=O)n1` [compound 122] was 1 to 50 nM; that for `Cc1cc(C(F)(F)F)cc(N2[C@H](C(=O)N(CC#Cc3cnc(C(N)=O)nn3)c3ccc(F)c(C)c3)CCS2(=O)=O)n1` [compound 123] was 1 to 50 nM; that for `Cc1cc(C(F)(F)F)cc(N2[C@H](C(=O)N(CC#Cc3ncc(C(N)=O)nn3)c3ccc(F)c(C)c3)CCS2(=O)=O)n1` [compound 124] was 1 to 50 nM.
For `Cc1cc(N(CC#Cc2cnc(N3CCOCC3)cn2)C(=O)[C@@H]2CCS(=O)(=O)N2c2cc(C(F)(F)F)cc(C(F)(F)F)n2)ccc1F` [compound 125], the IC50 was 1 to 50 nM.
To `Cc1cc(N(CC#Cc2ccc(C(N)=O)nc2)C(=O)[C@@H]2CCS(=O)(=O)N2c2cc(C(F)(F)F)cc(C(F)(F)F)n2)ccc1F` [compound 126] belongs 1 to 50 nM; to `C=CC(=O)Nc1cncc(C#CCN(C(=O)[C@@H]2CCS(=O)(=O)N2c2cc(C(F)(F)F)cc(C)n2)c2ccc(F)c(C)c2)c1` [compound 127], 1 to 50 nM; to `C=CC(=O)Nc1cncc(C#CCN(C(=O)[C@@H]2CCS(=O)(=O)N2c2cc(C(F)(F)F)cc(C)n2)c2ccc(F)c(C)c2)n1` [compound 128], 1 to 50 nM.
To `C=CC(=O)Nc1ccc(C#CCN(C(=O)[C@@H]2CCS(=O)(=O)N2c2cc(C(F)(F)F)cc(C)n2)c2ccc(F)c(C)c2)nn1` [compound 129] belongs 1 to 50 nM; to `C=C(F)C(=O)Nc1cncc(C#CCN(C(=O)[C@@H]2CCS(=O)(=O)N2c2cc(C(F)(F)F)cc(C)n2)c2ccc(F)c(C)c2)c1` [compound 130], 1 to 50 nM; to `Cc1cc(C(F)(F)F)cc(N2[C@H](C(=O)N(CC#Cc3ccc(Cc4ccc(C(N)=O)nn4)nc3)c3ccc(F)c(C)c3)CCS2(=O)=O)n1` [compound 131], 1 to 50 nM.
For the molecule `Cc1cc(C(F)(F)F)cc(N2[C@H](C(=O)N(CC#Cc3ccc(Cc4ncc(C(N)=O)cn4)nc3)c3ccc(F)c(C)c3)CCS2(=O)=O)n1` [compound 132], the IC50 is 1 to 50 nM.
The value for `Cc1cc(C(F)(F)F)cc(N2[C@H](C(=O)N(CC#Cc3ccc(Cc4ccc(=O)[nH]n4)nc3)c3ccc(F)c(C)c3)CCS2(=O)=O)n1` [compound 133] was 1 to 50 nM.
The value for `Cc1cc(C(F)(F)F)cc(N2[C@H](C(=O)N(CC#Cc3ccc(Cc4cnc5ccc(=O)[nH]c5c4)nc3)c3ccc(F)c(C)c3)CCS2(=O)=O)n1` [compound 134] was 1 to 50 nM; that for `Cc1cc(C(F)(F)F)cc(N2[C@H](C(=O)N(CC#Cc3ccc(Cc4cccc5c(=O)[nH]cnc45)nc3)c3ccc(F)c(C)c3)CCS2(=O)=O)n1` [compound 135] was 1 to 50 nM; that for `Cc1cc(C(F)(F)F)cc(N2[C@H](C(=O)N(CC#Cc3ccc(Cn4cc5cccc(C(N)=O)c5n4)nc3)c3ccc(F)c(C)c3)CCS2(=O)=O)n1` [compound 136] was 1 to 50 nM.
To `C=CC(=O)Nc1cccc(C#CCN(C(=O)[C@@H]2CCS(=O)(=O)N2c2cc(C(F)(F)F)cc(C)n2)c2ccc(F)c(C)c2)n1` [compound 137, (S)-N-(3-(6-acrylamidopyridin-2-yl)prop-2-yn-1-yl)-N-(4-fluoro-3-methylphenyl)-2-(6-methyl-4-(trifluoromethyl)pyridin-2-yl)isothiazolidine-3-carboxamide 1,1-dioxide] belongs 1 to 50 nM; to `C=CC(=O)Nc1ccnc(C#CCN(C(=O)[C@@H]2CCS(=O)(=O)N2c2cc(C(F)(F)F)cc(C)n2)c2ccc(F)c(C)c2)c1` [compound 138, (S)-N-(3-(4-acrylamidopyridin-2-yl)prop-2-yn-1-yl)-N-(4-fluoro-3-methylphenyl)-2-(6-methyl-4-(trifluoromethyl)pyridin-2-yl)isothiazolidine-3-carboxamide 1,1-dioxide], 1 to 50 nM.
